The source of these data is patent publication US5422341A, “Motilin-like polypeptides with gastrointestinal motor stimulating activity” (Ohmeda Pharmaceutical Products Division Inc., priority 1993, dated 1995).

Each structure is given as a SMILES string. Square brackets hold non-standard residues; d marks the D form. Peptide text beside a SMILES is read from it. * marks the point of attachment. X1 = C[N+](C)(C)[C@@H](Cc1ccccc1)C(=O)*; NMeF = CN[C@@H](Cc1ccccc1)C(=O)O

For one assay, the target named is T1, motilin receptor (Oryctolagus cuniculus, UniProt G1T803).
T1 construct: from tissue; host or cells: rabbit antral smooth muscle membranes
T1 sequence (G1T803 1-400): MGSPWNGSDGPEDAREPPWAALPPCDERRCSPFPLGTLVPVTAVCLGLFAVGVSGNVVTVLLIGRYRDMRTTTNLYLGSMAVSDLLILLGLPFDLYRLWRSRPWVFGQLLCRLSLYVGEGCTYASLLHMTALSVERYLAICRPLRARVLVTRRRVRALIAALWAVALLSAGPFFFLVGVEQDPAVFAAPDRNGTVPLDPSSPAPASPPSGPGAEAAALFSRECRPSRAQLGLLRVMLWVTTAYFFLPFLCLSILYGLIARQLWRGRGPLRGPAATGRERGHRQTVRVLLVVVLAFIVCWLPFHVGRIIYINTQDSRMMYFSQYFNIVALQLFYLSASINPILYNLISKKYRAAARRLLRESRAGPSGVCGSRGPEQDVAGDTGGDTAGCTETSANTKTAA
As to the kind of experiment: Determination of motilin receptor binding affinity (displacement of [125I-Tyr7, Nle13]motilin(porcine)). More on the design: species or system rabbit. The settings on record: negative logarithm of the concentration displacing 50% of [125I-Tyr7, Nle13]motilin(porcine) from rabbit antral smooth muscle membranes; read-out: pIC50 (converted). The protocol: The motilin receptor binding affinity of the peptides of this invention was determined by using the general procedure of Bormans, Peelers and Vantrappen, Regul. […] Fitting was performed using the iterative least-squares procedure of the SAS-software package (SAS Institute, Inc., Cary, N.C., USA).
For orientation: Loss of bound radioactivity is the signal in a displacement assay; it reports binding, not function.

For assay [1], the target named is segments of rabbit duodenum (Oryctolagus cuniculus, UniProt G1T803). As to the kind of experiment: Rabbit duodenal smooth muscle strip tissue bath assay. The format is cell-based. The following applies: negative logarithm of the dose giving 50% of the maximal response to motilin; isotonic contraction of rabbit duodenum segments. The protocol:
The contractile response of segments of rabbit duodenum was determined isotonically in the tissue bath according to the procedure of Depoortere et at., J. Gastrointestinal Motility, 1, 150-159 (1989). The experimental protocol consisted of an equilibration period of 1 hour; a challenge with 10^-4 M acetylcholine followed by a wash-out period; a cumulative dose-response curve of a compound with, at the end, the addition of 10^-7 M motilin; and finally 10^-4 M acetylcholine. If the final response to 10^-4 M acetylcholine differed by more than 5% from the initial response, the results were discarded. The compounds were tested in the concentration range 10^-11 to 10^-4 M. The point corresponding to 50% of the maximal response to motilin (Emax) was determined by fitting the equation E=Emax (1+EC50 /[L]) through the data points. […] The dose giving 50% of the response is expressed using its negative logarithm (pEC50).

Sequence of segments of rabbit duodenum (G1T803 1-400): as above

For `CC[C@H](C)[C@H](NC(=O)[C@H](C)NC(=O)[C@@H](NC(=O)[C@@H](N)Cc1ccccc1)C(C)C)C(=O)N[C@@H](Cc1ccccc1)C(=O)N[C@H](C(=O)N[C@@H](Cc1ccc(O)cc1)C(=O)NCC(=O)N[C@@H](CCC(=O)O)C(=O)N[C@@H](CC(C)C)C(=O)N[C@@H](CCC(N)=O)C(=O)N[C@H](CCCNC(=N)N)C(=O)N[C@@H](CC(C)C)C(=O)N[C@@H](CCC(N)=O)C(N)=O)[C@@H](C)O` (H-FVAIFTYGELQ[dR]LQ-NH2), the IC50 at motilin receptor is 1.95 nM. The pEC50 (as a rule, the EC50 on a negative log10 scale, so that one unit is a factor of ten) in assay [1] was found to be 7.76.
On to `CC[C@H](C)[C@H](NC(=O)[C@@H]1CCCN1C(=O)[C@@H](NC(=O)[C@@H](N)Cc1ccccc1)C(C)C)C(=O)N[C@@H](Cc1ccccc1)C(=O)N[C@H](C(=O)N[C@@H](Cc1ccccc1)C(=O)NCC(=O)N[C@@H](CCC(=O)O)C(=O)N[C@@H](CC(C)C)C(=O)N[C@@H](CCC(N)=O)C(=O)N[C@H](CCCNC(=N)N)C(=O)N[C@@H](CC(C)C)C(=O)N[C@@H](CCC(N)=O)C(=O)O)[C@@H](C)O` [[Phe^7, D-Arg^12, Leu^13]pMOT(1-14)] (H-FVPIFTFGELQ[dR]LQ-OH), for which the IC50 at motilin receptor was 8.51 nM. Moreover, the pEC50 in assay [1] worked out at 6.92.
As for `CC[C@H](C)[C@H](NC(=O)[C@H](C)NC(=O)[C@@H](NC(=O)[C@H](Cc1ccccc1)[N+](C)(C)C)C(C)C)C(=O)N[C@@H](Cc1ccccc1)C(=O)N[C@H](C(=O)N[C@@H](Cc1ccc(O)cc1)C(=O)NCC(=O)N[C@@H](CCC(=O)O)C(=O)N[C@@H](CC(C)C)C(=O)N[C@@H](CCC(N)=O)C(=O)N[C@H](CCCNC(=N)N)C(=O)N[C@@H](CC(C)C)C(=O)N[C@@H](CCC(N)=O)C(N)=O)[C@@H](C)O` (X1-VAIFTYGELQ[dR]LQ-NH2) [listing 1 of 2 here], at motilin receptor, the IC50 was 2.63 nM.
As for `CC[C@H](C)[C@H](NC(=O)[C@H](C)NC(=O)[C@@H](NC(=O)[C@H](Cc1ccccc1)[N+](C)(C)C)C(C)C)C(=O)N[C@@H](Cc1ccccc1)C(=O)N[C@H](C(=O)N[C@@H](Cc1ccc(O)cc1)C(=O)NCC(=O)N[C@@H](CCC(=O)O)C(=O)N[C@@H](CC(C)C)C(=O)N[C@@H](CCC(N)=O)C(=O)N[C@H](CCCNC(=N)N)C(=O)N[C@@H](CC(C)C)C(=O)N[C@@H](CCC(N)=O)C(N)=O)[C@@H](C)O` (X1-VAIFTYGELQ[dR]LQ-NH2) [listing 2 of 2 here], the IC50 at motilin receptor is 1.62 nM.
As to `CC[C@H](C)[C@H](NC(=O)[C@@H]1CCCN1C(=O)[C@@H](NC(=O)[C@H](Cc1ccccc1)NC)C(C)C)C(=O)N[C@@H](Cc1ccccc1)C(=O)N[C@H](C(=O)N[C@@H](Cc1ccc(O)cc1)C(=O)NCC(=O)N[C@@H](CCC(=O)O)C(=O)N[C@@H](CC(C)C)C(=O)N[C@@H](CCC(N)=O)C(=O)N[C@@H](CCCNC(=N)N)C(=O)N[C@@H](CC(C)C)C(=O)N[C@H](CCC(N)=O)C(N)=O)[C@@H](C)O` (H-[NMeF]VPIFTYGELQRL[dQ]-NH2), at motilin receptor, the IC50 is 0.617 nM.
Take `CC[C@H](C)[C@H](NC(=O)[C@H](C)NC(=O)[C@@H](NC(=O)[C@H](Cc1ccccc1)[N+](C)(C)C)C(C)C)C(=O)N[C@@H](Cc1ccccc1)C(=O)N[C@H](C(=O)N[C@@H](Cc1ccc(O)cc1)C(=O)NCC(=O)N[C@@H](CCC(=O)O)C(=O)N[C@@H](CC(C)C)C(=O)N[C@@H](CCC(N)=O)C(=O)N[C@H](CCCNC(=N)N)C(=O)N[C@@H](CC(C)C)C(=O)N[C@@H](CCC(N)=O)C(N)=O)[C@@H](C)O` [[Me3 N^+ Phe^1, Ala^3, D-Arg^13, Leu^13 ]pMOT(1-14) amide] (X1-VAIFTYGELQ[dR]LQ-NH2): the pEC50 in assay [1] is recorded as 7.32.
`CC[C@H](C)[C@H](NC(=O)[C@H](C)NC(=O)[C@@H](NC(=O)[C@H](Cc1ccccc1)[N+](C)(C)C)C(C)C)C(=O)N[C@@H](Cc1ccccc1)C(=O)N[C@H](C(=O)N[C@@H](Cc1ccc(O)cc1)C(=O)NCC(=O)N[C@@H](CCC(=O)O)C(=O)N[C@@H](CC(C)C)C(=O)N[C@@H](CCC(N)=O)C(=O)N[C@H](CCCNC(=N)N)C(=O)N[C@@H](CC(C)C)C(=O)N[C@@H](CCC(N)=O)C(N)=O)[C@@H](C)O` [[Me3 N^+ Phe^1, Ala^3, D-Arg^12, Leu^13 pMOT(1-14) amide] (X1-VAIFTYGELQ[dR]LQ-NH2) had a pEC50 in assay [1] of 7.57.
